Data as given in patent US8148391B2 (Cephalon, Inc., priority 2006, dated 2012).
pIC50: −log10 of the molar value. Where two headings read alike, the source gives them in different places. Values belong to the compound of their own block, whether it stands above or below them.

Legend:
[1] = target: T1, baculovirus-expressed ALK (Homo sapiens, UniProt Q9UM73); test: ALK Kinase Assay (ELISA-type, time-resolved fluorescence); type: biochemical
T1 construct: host or cells: baculovirus expression system
T1 sequence (Q9UM73 19-1620): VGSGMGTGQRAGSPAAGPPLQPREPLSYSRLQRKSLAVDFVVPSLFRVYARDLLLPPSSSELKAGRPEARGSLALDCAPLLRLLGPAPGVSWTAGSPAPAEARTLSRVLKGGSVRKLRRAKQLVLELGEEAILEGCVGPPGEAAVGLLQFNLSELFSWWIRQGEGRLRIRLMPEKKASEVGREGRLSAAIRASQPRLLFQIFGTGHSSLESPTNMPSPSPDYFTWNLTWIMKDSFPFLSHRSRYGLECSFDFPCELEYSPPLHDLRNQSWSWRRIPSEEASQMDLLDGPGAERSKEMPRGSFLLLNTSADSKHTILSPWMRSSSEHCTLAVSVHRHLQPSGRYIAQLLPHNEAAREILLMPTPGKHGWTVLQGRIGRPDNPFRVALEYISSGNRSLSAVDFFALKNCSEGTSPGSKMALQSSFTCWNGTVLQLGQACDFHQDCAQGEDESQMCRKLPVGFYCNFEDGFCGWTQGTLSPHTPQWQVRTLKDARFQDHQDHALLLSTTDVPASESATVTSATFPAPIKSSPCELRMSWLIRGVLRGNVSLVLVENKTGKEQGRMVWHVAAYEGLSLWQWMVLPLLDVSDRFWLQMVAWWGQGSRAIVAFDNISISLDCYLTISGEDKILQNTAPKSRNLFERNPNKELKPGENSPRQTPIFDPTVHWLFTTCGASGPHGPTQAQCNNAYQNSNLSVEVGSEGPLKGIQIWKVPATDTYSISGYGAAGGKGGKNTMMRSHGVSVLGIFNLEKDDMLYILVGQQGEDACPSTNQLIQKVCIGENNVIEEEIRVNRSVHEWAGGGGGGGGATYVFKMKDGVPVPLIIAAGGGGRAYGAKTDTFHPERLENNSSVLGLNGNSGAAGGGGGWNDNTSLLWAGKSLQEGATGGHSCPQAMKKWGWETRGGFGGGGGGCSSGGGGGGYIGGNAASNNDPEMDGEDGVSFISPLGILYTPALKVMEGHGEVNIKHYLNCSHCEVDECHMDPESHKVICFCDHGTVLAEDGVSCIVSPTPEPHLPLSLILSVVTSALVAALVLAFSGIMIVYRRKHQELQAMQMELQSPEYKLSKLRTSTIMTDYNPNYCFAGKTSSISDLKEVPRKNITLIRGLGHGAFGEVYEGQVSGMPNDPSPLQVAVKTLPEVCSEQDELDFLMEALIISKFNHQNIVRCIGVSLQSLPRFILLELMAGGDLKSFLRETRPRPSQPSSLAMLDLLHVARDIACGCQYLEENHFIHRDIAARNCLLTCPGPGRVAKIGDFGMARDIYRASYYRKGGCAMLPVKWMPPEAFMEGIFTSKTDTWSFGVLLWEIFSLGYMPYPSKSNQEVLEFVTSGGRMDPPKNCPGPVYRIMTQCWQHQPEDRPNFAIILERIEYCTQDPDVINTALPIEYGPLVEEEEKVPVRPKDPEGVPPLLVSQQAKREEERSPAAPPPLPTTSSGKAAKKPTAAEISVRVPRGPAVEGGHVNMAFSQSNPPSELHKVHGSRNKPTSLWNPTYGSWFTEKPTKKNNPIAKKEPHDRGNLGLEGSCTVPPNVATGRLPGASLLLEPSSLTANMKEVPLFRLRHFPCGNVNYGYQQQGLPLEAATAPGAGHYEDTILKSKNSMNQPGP
In short: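 Plates coated with phospholipase C-γ substrate (10 μg/mL in TBS); reaction started with 30 ng/ml ALK and run 15 min at 37° C. Phosphorylated substrate detected with Eu-N1-labeled PT66 antibody. IC50 from sigmoidal variable-slope fit of percent inhibition vs log concentration.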

[2] = target: T2, c-Met (cytoplasmic domain) (Homo sapiens, UniProt P08581); test: c-Met Kinase Assay (same methods as for ALK, with modifications); type: biochemical
T2 construct: 10 ng/mL c-Met (cytoplasmic domain, Invitrogen Corporation #PV3143); purchased Invitrogen Corporation PV3143
T2 sequence (P08581 956-1390 limits assumed): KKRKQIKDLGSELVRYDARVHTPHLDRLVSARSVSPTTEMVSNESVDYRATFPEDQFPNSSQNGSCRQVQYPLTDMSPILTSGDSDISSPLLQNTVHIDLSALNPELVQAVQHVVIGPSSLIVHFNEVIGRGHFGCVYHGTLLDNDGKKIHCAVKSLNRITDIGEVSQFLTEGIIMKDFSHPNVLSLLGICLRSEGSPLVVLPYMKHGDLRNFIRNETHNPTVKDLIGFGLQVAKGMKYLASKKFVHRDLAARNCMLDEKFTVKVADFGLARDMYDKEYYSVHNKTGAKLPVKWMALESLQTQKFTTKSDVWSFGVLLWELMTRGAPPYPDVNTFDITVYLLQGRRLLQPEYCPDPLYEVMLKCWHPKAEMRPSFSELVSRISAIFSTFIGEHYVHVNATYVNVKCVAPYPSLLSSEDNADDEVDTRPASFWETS
In short: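 Plates were coated with phospholipase C-γ substrate (10 μg/mL) in TBS, and the reaction was started with 10 ng/mL c-Met cytoplasmic domain and run 15 min at 37 °C. Phosphoproduct was detected with Eu-N1-labelled PT66 antibody. IC50 came from a variable-slope sigmoidal fit of percent inhibition vs log concentration.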

[3] = 1 μM ATP (Km level), read-out: ALK Activity (ALK Kinase Inhibition, IC50)
[4] = 1 μM ATP (Km level), read-out: cMet Activity (c-Met Kinase Inhibition, IC50)
[5] = ALK kinase inhibition, 1 μM ATP (Km level), read-out: ALK Activity
[6] = c-Met kinase inhibition, 1 μM ATP (Km level), read-out: cMet Activity
[7] = ALK kinase inhibition, 1 μM ATP, read-out: ALK Activity
[8] = c-Met kinase inhibition, 1 μM ATP, read-out: cMet Activity
[9] = 1 μM ATP (Km level), 30 ng/ml ALK, 37° C., 15 minutes, read-out: ALK Activity (ALK kinase inhibition, IC50 class)
[10] = 1 μM ATP (Km level), 10 ng/mL c-Met, read-out: cMet Activity (c-Met kinase inhibition, IC50 class)

- pIC50 [1, 3]: > 7.00
- pIC50 [2, 4]: 5.00 to 6.00
Compound: CCN1C(=O)CCCc2c1ccc(Nc1ncc(Cl)c(Nc3ccc(OC)cc3C(=O)NC)n1)c2OC [Example 607, 2-[5-Chloro-2-(1-ethyl-6-methoxy-2-oxo-2,3,4,5-tetrahydro-1H-benzo[b]azepin-7-ylamino)-pyrimidin-4-ylamino]-5-methoxy-N-methyl-benzamide]

- pIC50 [1, 5]: > 7.00
- pIC50 [2, 6]: < 5.00
Compound: COc1cc2c(cc1Nc1ncc(Cl)c(Nc3ccc(N4CCOCC4)cc3OC)n1)CCN(C[C@H](O)C(F)(F)F)CC2 [Example 462, (S)-3-{7-[5-Chloro-4-(2-methoxy-4-morpholin-4-yl-phenylamino)-pyrimidin-2-ylamino]-8-methoxy-1,2,4,5-tetrahydro-benzo[d]azepin-3-yl}-1,1,1-trifluoro-propan-2-ol]

- pIC50 [1, 5]: 6.00 to 7.00
- pIC50 [2, 6]: > 7.00
Compound: CNC(=O)c1cc(Cl)cc(Cl)c1Nc1nc(Nc2ccc3c(c2)CCN(CCOC)CC3)ncc1Cl [Example 314, 3,5-Dichloro-2-{5-chloro-2-[3-(2-methoxy-ethyl)-2,3,4,5-tetrahydro-1H-benzo[d]azepin-7-ylamino]-pyrimidin-4-ylamino}-N-methyl-benzamide]

- pIC50 [1, 7]: > 7.00
- pIC50 [2, 8]: > 7.00
Compound: CNC(=O)c1ccccc1Nc1nc(Nc2ccc3c(c2)N(C(C)=O)CCCO3)ncc1Cl [Example 1703, 2-[2-(9-Acetyl-6,7,8,9-tetrahydro-5-oxa-9-aza-benzocyclohepten-2-ylamino)-5-chloro-pyrimidin-4-ylamino]-N-methyl-benzamide]

- pIC50 [1, 7]: > 7.00
- pIC50 [2, 8]: 5.00 to 6.00
Compound: COc1cc2c(cc1Nc1ncc(Cl)c(Nc3ccccc3S(=O)(=O)N(C)C)n1)CCN(CCOC(=O)CN)CC2 [Example 1542, Amino-acetic acid 2-{7-[5-chloro-4-(2-dimethylsulfamoyl-phenylamino)-pyrimidin-2-ylamino]-8-methoxy-1,2,4,5-tetrahydro-benzo[d]azepin-3-yl}-ethyl ester]

- pIC50 [1, 7]: > 7.00
- pIC50 [2, 8]: 6.00 to 7.00
Compound: CN1C(=O)OCCc2cc(Nc3ncc(Cl)c(Nc4ccccc4-n4cccn4)n3)ccc21 [Example 1766, 2-[5-Chloro-4-(2-pyrazol-1-yl-phenylamino)-pyrimidin-2-ylamino]-5-methyl-8,9-dihydro-5H-7-oxa-5-aza-benzocyclohepten-6-one]

- pIC50 [1, 3]: > 7.00
- pIC50 [2, 4]: 5.00 to 6.00
Compound: COCCN1CCc2ccc(Nc3ncc(Cl)c(Nc4ccccc4-c4ncccc4C(F)(F)F)n3)cc2CC1 [Example 992, 5-Chloro-N*2*-[3-(2-methoxy-ethyl)-2,3,4,5-tetrahydro-1H-benzo[d]azepin-7-yl]-N*4*-[2-(3-trifluoromethyl-pyridin-2-yl)-phenyl]-pyrimidine-2,4-diamine]

- pIC50 [1, 7]: 6.00 to 7.00
- pIC50 [2, 8]: > 7.00
Compound: C#CCNC(=O)c1cccc(F)c1Nc1nc(Nc2ccc3c(c2)N(CC)C(=O)C(NC(=O)COC)CC3)ncc1Cl (centres unmarked) [Example 1499, 2-{5-Chloro-2-[1-ethyl-3-(2-methoxy-acetylamino)-2-oxo-2,3,4,5-tetrahydro-1H-benzo[b]azepin-8-ylamino]-pyrimidin-4-ylamino}-3-fluoro-N-prop-2-ynyl-benzamide]

Compound: CS(=O)(=O)N[C@@H]1CCCC[C@H]1Nc1nc(Nc2ccc3c(c2)C2CCC3CNC2)ncc1Cl (stereo partly drawn) [Example 293, N-{(1R,2R)-2-[2-(10-Aza-tricyclo[6.3.2.0*2,7*]trideca-2,4,6-trien-4-ylamino)-5-chloro-pyrimidin-4-ylamino]-cyclohexyl}-methanesulfonamide]
- pIC50 [1, 5]: > 7.00
- pIC50 [2, 6]: 5.00 to 6.00

- pIC50 [1, 7]: > 7.00
- pIC50 [2, 8]: > 7.00
Compound: O=C1CCCc2ccc(Nc3ncc(Cl)c(Nc4ccccc4S(=O)(=O)N4CCC(O)C4)n3)cc2N1 (centres unmarked) [Example 1493, 8-{5-Chloro-4-[2-(3-hydroxy-pyrrolidine-1-sulfonyl)-phenylamino]-pyrimidin-2-ylamino}-1,3,4,5-tetrahydro-benzo[b]azepin-2-one]

- pIC50 [1, 9]: > 7.00
- pIC50 [2, 10]: 5.00 to 6.00
Compound: COCCN1CCc2ccc(Nc3ncc(Cl)c(Nc4ccccc4C(=O)NCC4CC4)n3)cc2CC1 [Example 1421, 2-{5-Chloro-2-[3-(2-methoxy-ethyl)-2,3,4,5-tetrahydro-1H-benzo[d]azepin-7-ylamino]-pyrimidin-4-ylamino}-N-cyclopropylmethyl-benzamide]

- pIC50 [1, 7]: > 7.00
- pIC50 [2, 8]: 5.00 to 6.00
Compound: CCN([C@@H]1CCCC[C@H]1Nc1nc(Nc2ccc3c(c2)C(C)(C)CCC(=O)N3)ncc1Cl)S(C)(=O)=O [Example 1675, N-{(1R,2R)-2-[5-Chloro-2-(5,5-dimethyl-2-oxo-2,3,4,5-tetrahydro-1H-benzo[b]azepin-7-ylamino)-pyrimidin-4-ylamino]-cyclohexyl}-N-ethyl-methanesulfonamide]

- pIC50 [1, 3]: > 7.00
- pIC50 [2, 4]: < 5.00
Compound: COCC(COC)N1CCc2cc(Nc3ncc(Cl)c(Nc4ccccc4S(=O)(=O)N(C)C)n3)c(OC)cc2CC1 [Example 818, 2-{5-Chloro-2-[8-methoxy-3-(2-methoxy-1-methoxymethyl-ethyl)-2,3,4,5-tetrahydro-1H-benzo[d]azepin-7-ylamino]-pyrimidin-4-ylamino}-N,N-dimethyl-benzenesulfonamide]

- pIC50 [1, 3]: > 7.00
- pIC50 [2, 4]: 6.00 to 7.00
Compound: NC(=O)[C@@H]1[C@H](Nc2nc(Nc3ccc4c(c3)CCC(N3CCOCC3)CC4)ncc2Cl)[C@H]2C=C[C@@H]1C2 (single isomer, unassigned) [Example 682]

- pIC50 [1, 3]: > 7.00
- pIC50 [2, 4]: 5.00 to 6.00
Compound: CCN1CCN(CC)c2cc(Nc3ncc(Cl)c(Nc4ccc(N5CCOCC5)cc4OC)n3)ccc2C1 [Example 712, 5-Chloro-N*2*-(1,4-diethyl-2,3,4,5-tetrahydro-1H-benzo[e][1,4]diazepin-8-yl)-N*4*-(2-methoxy-4-morpholin-4-yl-phenyl)-pyrimidin-2,4-diamine]

- pIC50 [1, 5]: > 7.00
- pIC50 [2, 6]: 5.00 to 6.00
Compound: CCN1CCc2ccc(Nc3ncc(Cl)c(Nc4cccc(N5CCOCC5)c4)n3)cc2CC1 [Example 444, 5-Chloro-N*2*-(3-ethyl-2,3,4,5-tetrahydro-1H-benzo[d]azepin-7-yl)-N*4*-(3-morpholin-4-yl-phenyl)-pyrimidine-2,4-diamine]

- pIC50 [1, 3]: 5.00 to 6.00
- pIC50 [2, 4]: < 5.00
Compound: COc1cc2c(cc1Nc1ncc(C(F)(F)F)c(Nc3ccccc3S(=O)(=O)C(C)C)n1)CCN(CC(=O)N(C)C)CC2 [Example 932, 2-(7-Methoxy-8-{4-[2-(propane-2-sulfonyl)-phenylamino]-5-trifluoromethyl-pyrimidin-2-ylamino}-1,2,4,5-tetrahydro-3-benzazepin-3-yl)-N,N-dimethyl-acetamide]

- pIC50 [1, 9]: > 7.00
- pIC50 [2, 10]: > 7.00
Compound: CCNC(=O)c1cccc(F)c1Nc1nc(Nc2ccc3c(c2)C(C)(C)CCC(=O)N3)ncc1Cl [Example 1365, 2-[5-Chloro-2-(5,5-dimethyl-2-oxo-2,3,4,5-tetrahydro-1H-benzo[b]azepin-7-ylamino)-pyrimidin-4-ylamino]-N-ethyl-3-fluoro-benzamide]

- pIC50 [1, 9]: > 7.00
- pIC50 [2, 10]: < 5.00
Compound: COCCOc1ccc(Nc2nc(Nc3cc4c(cc3OC)CCN(CCS(C)(=O)=O)CC4)ncc2Cl)c(OC)c1 [Example 1168, 5-Chloro-N*2*-[3-(2-methanesulfonyl-ethyl)-8-methoxy-2,3,4,5-tetrahydro-1H-benzo[d]azepin-7-yl]-N*4*-[2-methoxy-4-(2-methoxy-ethoxy)-phenyl]-pyrimidine-2,4-diamine]

- pIC50 [1, 7]: > 7.00
- pIC50 [2, 8]: 6.00 to 7.00
Compound: CN1C(=O)OCCc2cc(Nc3ncc(Cl)c(Nc4ccccc4-c4nccn4C)n3)ccc21 [Example 1749, 2-{5-chloro-4-[2-(1-methyl-1H-imidazol-2-yl)-phenylamino]-pyrimidin-2-ylamino}-5-methyl-8,9-dihydro-5H-7-oxa-5-aza-benzocyclohepten-6-one]

- pIC50 [1, 9]: 6.00 to 7.00
- pIC50 [2, 10]: > 7.00
Compound: C#CCNC(=O)c1cccc(F)c1Nc1nc(Nc2ccc3c(c2)NC(=O)C(NC(=O)C(F)(F)F)CC3(C)C)ncc1Cl (centres unmarked) [Example 1279, 2-{5-Chloro-2-[5,5-dimethyl-2-oxo-3-(2,2,2-trifluoro-acetylamino)-2,3,4,5-tetrahydro-1H-1-benzazepin-8-ylamino]-pyrimidin-4-ylamino}-3-fluoro-N-prop-2-ynyl-benzamide]

- pIC50 [1, 7]: > 7.00
- pIC50 [2, 8]: > 7.00
Compound: CNC(=O)c1ccccc1Nc1nc(Nc2ccc3c(c2)CCOC(=O)N3C)ncc1Cl [Example 1741, 2-[5-Chloro-2-(5-methyl-6-oxo-5,6,8,9-tetrahydro-7-oxa-5-aza-benzocyclohepten-2-ylamino)-pyrimidin-4-ylamino]-N-methylbenzamide]
